{"source": "paper PMC3203319", "about": "(The Journal of antibiotics, 2011)", "key": {"S.aureus ACH-0231": {"test_system": "S.aureus ACH-0231", "assay": "MIC, MRSA panel", "assay_type": "cell-based", "details": "Staphylococcus aureus"}, "S.aureus BSA 678": {"test_system": "S.aureus BSA 678", "assay": "MIC, MRSA panel", "assay_type": "cell-based", "details": "Staphylococcus aureus"}, "S.aureus ATCC 33591": {"test_system": "S.aureus ATCC 33591", "assay": "MIC, MRSA panel", "assay_type": "cell-based", "details": "Staphylococcus aureus, ATCC33591|MRSA"}, "S.aureus BK 2384": {"test_system": "S.aureus BK 2384", "assay": "MIC, MRSA panel", "assay_type": "cell-based", "details": "Staphylococcus aureus"}, "S.aureus COL": {"test_system": "S.aureus COL", "assay": "MIC, MRSA panel", "assay_type": "cell-based", "details": "Staphylococcus aureus"}, "S.aureus BSA 643": {"test_system": "S.aureus BSA 643", "assay": "MIC, MRSA panel", "assay_type": "cell-based", "details": "Staphylococcus aureus"}, "S.aureus ACH-0232": {"test_system": "S.aureus ACH-0232", "assay": "MIC, MRSA panel", "assay_type": "cell-based", "details": "Staphylococcus aureus"}, "S.aureus NY 2746": {"test_system": "S.aureus NY 2746", "assay": "MIC, MRSA panel", "assay_type": "cell-based", "details": "Staphylococcus aureus"}, "MRSA": {"test_system": "MRSA", "assay": "MIC assay with 50% human serum added", "assay_type": "cell-based, S. aureus", "details": "fold shift in MIC with 50% human serum"}, "Gram-positive bacteria": {"test_system": "Gram-positive bacteria", "assay": "MBC analysis, expanded panel of Gram-positive bacteria", "assay_type": "cell-based", "details": "MIC = MBC"}, "S.marcescens ACH-0009": {"test_system": "S.marcescens ACH-0009", "assay": "MIC, Gram-negative panel", "assay_type": "cell-based", "details": "Serratia marcescens, ACH0009"}, "S.epidermidis (MS) SE42": {"test_system": "S.epidermidis (MS) SE42", "assay": "MIC, Gram-positive panel", "assay_type": "cell-based", "details": "Staphylococcus epidermidis"}, "[1]": {"test_system": "E.faecalis (VR) ATCC 700802", "assay": "MIC, Gram-positive panel", "assay_type": "cell-based", "details": "Enterococcus faecalis, ATCC700802"}, "K.pneumoniae ATCC 13883": {"test_system": "K.pneumoniae ATCC 13883", "assay": "MIC, Gram-negative panel", "assay_type": "cell-based", "details": "Klebsiella pneumoniae, ATCC13883"}, "[2]": {"assay": "Liver S9 fraction stability", "assay_type": "in vitro ADME, human"}, "Plasma stability [3]": {"assay": "Plasma stability", "assay_type": "in vitro ADME", "details": "dog"}, "P.aeruginosa FQR 467296": {"test_system": "P.aeruginosa FQR 467296", "assay": "MIC, Gram-negative panel", "assay_type": "cell-based", "details": "Pseudomonas aeruginosa, FQR467296"}, "[4]": {"assay": "Liver S9 fraction stability", "assay_type": "in vitro ADME", "details": "rat liver S9 fraction (RLS9)"}, "Plasma stability [5]": {"assay": "Plasma stability", "assay_type": "in vitro ADME", "details": "rat"}, "E.coli 1GC2": {"test_system": "E.coli 1GC2", "assay": "MIC, Gram-negative panel", "assay_type": "cell-based", "details": "Escherichia coli"}, "Plasma stability [6]": {"assay": "Plasma stability", "assay_type": "in vitro ADME", "details": "monkey"}, "C. albicans": {"test_system": "C. albicans", "assay": "MIC against yeast", "assay_type": "cell-based", "details": "Candida albicans, read-out: MIC C. albicans"}, "Plasma stability [7]": {"assay": "Plasma stability", "assay_type": "in vitro ADME", "details": "mouse"}, "rat red blood cell": {"test_system": "rat red blood cell", "assay": "Hemolysis, rat red blood cell assay", "assay_type": "cell-based", "details": "rat red blood cells, data not shown"}, "E.faecalis ATCC 29212": {"test_system": "E.faecalis ATCC 29212", "assay": "MIC, Gram-positive panel", "assay_type": "cell-based", "details": "Enterococcus faecalis, ATCC29212"}, "A.baumanii ATCC 9957": {"test_system": "A.baumanii ATCC 9957", "assay": "MIC, Gram-negative panel", "assay_type": "cell-based", "details": "Acinetobacter baumannii, ATCC9957"}, "E.faecium ATCC 49032": {"test_system": "E.faecium ATCC 49032", "assay": "MIC, Gram-positive panel", "assay_type": "cell-based", "details": "Enterococcus faecium, ATCC49032"}, "[8]": {"assay": "Stability in dosing vehicle", "assay_type": "physicochemical", "details": "potassium phosphate at pH 7.4, after 4 h"}, "MSSA": {"test_system": "MSSA", "assay": "MIC assay with 50% mouse serum added", "assay_type": "cell-based, S. aureus", "details": "fold shift in MIC with 50% mouse serum"}, "S.typhimurium ATCC 14028": {"test_system": "S.typhimurium ATCC 14028", "assay": "MIC, Gram-negative panel", "assay_type": "cell-based", "details": "Salmonella enterica, ATCC14028|TYPHIMURIUM"}, "S. aureus ATCC 29213": {"test_system": "S. aureus ATCC 29213", "assay": "Time-kill study", "assay_type": "cell-based", "details": "2, 4 and 8 times the MIC, 24 h time course"}, "[9]": {"test_system": "E.faecium (VR) ATCC 700221", "assay": "MIC, Gram-positive panel", "assay_type": "cell-based", "details": "Enterococcus faecium, ATCC700221"}, "Plasma stability [10]": {"assay": "Plasma stability", "assay_type": "in vitro ADME", "details": "human"}, "[11]": {"assay": "Liver microsome stability", "assay_type": "in vitro ADME", "details": "human liver microsomes (HLM)"}, "E.coli FQR 362265": {"test_system": "E.coli FQR 362265", "assay": "MIC, Gram-negative panel", "assay_type": "cell-based", "details": "Escherichia coli, FQR362265"}, "E.cloacae ACH-0008": {"test_system": "E.cloacae ACH-0008", "assay": "MIC, Gram-negative panel", "assay_type": "cell-based", "details": "Enterobacter cloacae, ACH0008"}, "[12]": {"test_system": "DNA, RNA, and protein synthesis in S. aureus ATCC 29213", "assay": "Macromolecular synthesis assays", "assay_type": "cell-based", "details": "10× MIC, 20 min incubation"}, "[13]": {"assay": "Liver microsome stability", "assay_type": "in vitro ADME", "details": "rat liver microsomes (RLM)"}, "[14]": {"test_system": "S.epidermidis (FQR) ACH-0082", "assay": "MIC, Gram-positive panel", "assay_type": "cell-based", "details": "Staphylococcus epidermidis"}, "[15]": {"test_system": "S.haemolyticus (MS) ACH-0013", "assay": "MIC, Gram-positive panel", "assay_type": "cell-based", "details": "Staphylococcus haemolyticus"}}}
{"smiles": "CN[C@H](CC(C)C)C(=O)N[C@H]1C(=O)N[C@@H](CC(N)=O)C(=O)N[C@H]2C(=O)N[C@H]3C(=O)N[C@H](C(=O)N[C@H](C(=O)O)c4cc(O)cc(O)c4-c4cc3ccc4O)[C@H](O)c3ccc(c(Cl)c3)Oc3cc2cc(c3O[C@@H]2O[C@H](CO)[C@@H](O)[C@H](O)[C@H]2O[C@H]2C[C@](C)(N)[C@H](O)[C@H](C)O2)Oc2ccc(cc2Cl)[C@H]1O", "note": "[Vancomycin, reference compound]", "values": [{"measurement": "MIC", "setting": "S.aureus ACH-0231", "result": 2, "unit": "µg/mL"}, {"measurement": "MIC", "setting": "S.aureus BSA 678", "result": 1, "unit": "µg/mL"}, {"measurement": "MIC", "setting": "S.aureus ATCC 33591", "result": 1, "unit": "µg/mL"}, {"measurement": "MIC", "setting": "S.aureus BK 2384", "result": 1, "unit": "µg/mL"}, {"measurement": "MIC", "setting": "S.aureus COL", "result": 1, "unit": "µg/mL"}, {"measurement": "MIC", "setting": "S.aureus BSA 643", "result": 1, "unit": "µg/mL"}, {"measurement": "MIC", "setting": "S.aureus ACH-0232", "result": 1, "unit": "µg/mL"}, {"measurement": "MIC", "setting": "S.aureus NY 2746", "result": 1, "unit": "µg/mL"}]}
{"smiles": "O=[N+]([O-])c1ccc(-c2nc3cccc(O)c3[nH]2)o1", "note": "[Compound 3e, 2-(5-Nitrofuran-2-yl)-3H-benzo[d]imidazole-4ol]", "values": [{"measurement": "MIC", "setting": "S.aureus ACH-0231", "result": 2, "unit": "µg/mL"}, {"measurement": "Fold Shift Human", "setting": "MRSA", "result": 4, "unit": "×"}, {"measurement": "bactericidal activity by MBC analysis", "setting": "Gram-positive bacteria", "result": "bactericidal"}, {"measurement": "MIC", "setting": "S.marcescens ACH-0009", "result": 16, "unit": "µg/mL"}, {"measurement": "MIC", "setting": "S.epidermidis (MS) SE42", "result": 1, "unit": "µg/mL"}, {"measurement": "MIC", "setting": "S.aureus BSA 678", "result": 1, "unit": "µg/mL"}, {"measurement": "MIC", "setting": "S.aureus ATCC 33591", "result": 2, "unit": "µg/mL"}, {"measurement": "MIC", "setting": "[1]", "result": 1, "unit": "µg/mL"}, {"measurement": "MIC", "setting": "K.pneumoniae ATCC 13883", "result": 8, "unit": "µg/mL"}, {"measurement": "remaining", "setting": "[2]; HLS9, after 60 min of incubation", "result": 13, "unit": "%"}, {"measurement": "half-life", "setting": "[2]; human, liver S9 fraction", "result": 12.6, "unit": "min"}, {"measurement": "half-life", "setting": "Plasma stability [3]", "result": 336, "unit": "min"}, {"measurement": "MIC", "setting": "P.aeruginosa FQR 467296", "result": "> 64", "unit": "µg/mL"}, {"measurement": "MIC", "setting": "S.aureus BK 2384", "result": 1, "unit": "µg/mL"}, {"measurement": "clearance time", "setting": "[4]", "result": "< 30", "unit": "min"}, {"measurement": "half-life", "setting": "Plasma stability [5]", "result": 234, "unit": "min"}, {"measurement": "MIC", "setting": "E.coli 1GC2", "result": 16, "unit": "µg/mL"}, {"measurement": "half-life", "setting": "Plasma stability [6]", "result": 120, "unit": "min"}, {"measurement": "MIC", "setting": "S.aureus COL", "result": 1, "unit": "µg/mL"}, {"measurement": "MIC", "setting": "C. albicans", "result": "> 64", "unit": "µg/mL"}, {"measurement": "MIC", "setting": "S.aureus BSA 643", "result": 1, "unit": "µg/mL"}, {"measurement": "half-life", "setting": "Plasma stability [7]", "result": 216, "unit": "min"}, {"measurement": "hemolysis", "setting": "rat red blood cell", "result": "negative"}, {"measurement": "MIC", "setting": "S.aureus ACH-0232", "result": 2, "unit": "µg/mL"}, {"measurement": "MIC", "setting": "E.faecalis ATCC 29212", "result": 1, "unit": "µg/mL"}, {"measurement": "MIC", "setting": "A.baumanii ATCC 9957", "result": "> 64", "unit": "µg/mL"}, {"measurement": "MIC", "setting": "E.faecium ATCC 49032", "result": 4, "unit": "µg/mL"}, {"measurement": "stability in dosing vehicle", "setting": "[8]", "result": "no degradation"}, {"measurement": "Fold Shift Mouse", "setting": "MSSA", "result": 4, "unit": "×"}, {"measurement": "MIC", "setting": "S.typhimurium ATCC 14028", "result": 4, "unit": "µg/mL"}, {"measurement": "Time-kill result", "setting": "S. aureus ATCC 29213", "result": "bactericidal"}, {"measurement": "MIC", "setting": "[9]", "result": 4, "unit": "µg/mL"}, {"measurement": "half-life", "setting": "Plasma stability [10]", "result": 270, "unit": "min"}, {"measurement": "time to complete clearance", "setting": "[11]", "result": "≤ 30", "unit": "min"}, {"measurement": "MIC", "setting": "E.coli FQR 362265", "result": 4, "unit": "µg/mL"}, {"measurement": "MIC", "setting": "E.cloacae ACH-0008", "result": 4, "unit": "µg/mL"}, {"measurement": "inhibition of DNA, RNA and protein synthesis", "setting": "[12]", "result": "significantly inhibited DNA, RNA, and protein at nearly equivalent levels"}, {"measurement": "MIC", "setting": "S.aureus NY 2746", "result": 2, "unit": "µg/mL"}, {"measurement": "time to complete clearance", "setting": "[13]", "result": "≤ 30", "unit": "min"}, {"measurement": "MIC", "setting": "[14]", "result": 4, "unit": "µg/mL"}, {"measurement": "MIC", "setting": "[15]", "result": 0.5, "unit": "µg/mL"}]}
